Assays:
[1] = Log P (Table 4); format: physicochemical; conditions: method not stated
[2] = tested on: A549 Cell line (Lung Cancer Cell line); assay: Cell proliferation assay (MTT), in-vitro anticancer activity against A549 cell line; format: cell-based; conditions: Homo sapiens, 72 h; for viability at 0.01 µM: A549, 0.01 μM; for viability at 0.1 µM: A549, 0.1 μM; for viability at 2.5 µM: A549, 2.5 μM; for viability at 5 µM: A549, 5 μM; for viability at 10 µM: A549, 10 μM
Procedure: (§1) Each cell line was plated in 96-well microtiter plates (10,000 cells per well), and serial dilutions of indicated compounds were added. At the end of the incubation period (72 h at 37° C.), cell viability was determined by a tetrazolium dye, MTT (3-(4,5-dimethylthiazol-2-yl)-2,5-diphenyl tetrazolium bromide) (Promega, USA). The formazan crystals were dissolved in DMSO, and the absorbance at 600 nm was recorded using an ELISA plate reader. IC50 values were calculated using nonlinear regression and defined as the concentration needed for a 50% reduction in absorbance of treated versus untreated control cells.
In-Vitro Anticancer Activity Against A549 Cell Line (Lung Cancer Cell Line) (Adenocarcinomic Human Alveolar Basal Epithelial Cells)

[3] = tested on: U87MG Cell line (glioblastoma cell line); assay: Cell proliferation assay (MTT), in-vitro anticancer activity against U87MG cell line; format: cell-based; conditions: Homo sapiens, U-87 MG, 72 h
Procedure: as §1
In-Vitro Anticancer Activity Against U87MG Cell Line (Glioblastoma Cell Line)

Row | SMILES | logP [1] | viability at 0.01 µM [2] [%] | viability at 0.1 µM [2] [%] | viability at 2.5 µM [2] [%] | viability at 5 µM [2] [%] | viability at 10 µM [2] [%] | melting point [°C] | viability at 0.01 µM [3] [%] | viability at 0.1 µM [3] [%] | viability at 2.5 µM [3] [%] | viability at 5 µM [3] [%] | viability at 10 µM [3] [%]
1 | Nc1nc(Nc2c(Cl)cccc2Cl)sc1-c1cc(=O)c2ccc(O)cc2o1 [Compound S1-M5, 2-(2-(2,6-dichlorophenylamino)-4-aminothiazol-5-yl)-7-hydroxy-4H-chromen-4-one] | 3.02 | 98.8 | 91.6 | 83.9 | 71.9 | 65.9 | 260 to 262 | 84.8 | 77.6 | 69.9 | 60.9 | 52.9
2 | COc1ccc2oc(-c3sc(Nc4c(Cl)cccc4Cl)nc3N)cc(=O)c2c1 [Compound S1-M13, 2-(2-(2,6-dichlorophenylamino)-4-aminothiazol-5-yl)-6-methoxy-4H-chromen-4-one] | 2.18 | 95.4 | 90.9 | 82.6 | 72.6 | 62.6 | 260 to 262 | 90.4 | 81.9 | 72.4 | 64.6 | 55.9
3 | COc1ccc2oc(-c3sc(Nc4ccccc4C)nc3N)cc(=O)c2c1 [Compound S1-M11, 2-(2-(o-tolylamino)-4-aminothiazol-5-yl)-6-methoxy-4H-chromen-4-one] | 2.11 | 99.8 | 93.7 | 84.8 | 72.8 | 62.8 | 288 to 290 | 83.8 | 75.7 | 67.2 | 58.8 | 49.8
4 | Cc1ccccc1Nc1nc(N)c(-c2cc(=O)c3ccc(O)cc3o2)s1 [Compound S1-M3, 2-(2-(o-tolylamino)-4-aminothiazol-5-yl)-7-hydroxy-4H-chromen-4-one] | 2.01 | 97.6 | 91.4 | 85.8 | 74.8 | 55.8 | 268 to 270 | 82.6 | 74.4 | 68.8 | 60.8 | 54.8
5 | Nc1nc(Nc2ccccc2)sc1-c1cc(=O)c2ccccc2o1 [Compound S1-M1, 2-(4-amino-2-(phenylamino)thiazol-5-yl)-4H-chromen-4-one] | 3.2 | 100 | 90.5 | 82.5 | 75.5 | 60.5 | 232 to 234 | 88 | 79.5 | 70.5 | 62.5 | 51.5
6 | Cc1cccc(C)c1Nc1nc(N)c(-c2cc(=O)c3ccc(O)cc3o2)s1 [Compound S1-M4, 2-(2-(2,6-dimethylphenylamino)-4-aminothiazol-5-yl)-7-hydroxy-4H-chromen-4-one] | 3.42 | 88.6 | 85.8 | 77.6 | 68.6 | 61.6 | 224 to 226 | 80.6 | 71.8 | 65.6 | 58.6 | 50.6
7 | Cc1ccc(Nc2nc(N)c(-c3cc(=O)c4ccccc4o3)s2)cc1 [Compound S1-M9, 2-(2-(p-tolylamino)-4-aminothiazol-5-yl)-4H-chromen-4-one] | 1.9 | 100 | 91.8 | 87.3 | 77.3 | 67.3 | 200 to 202 | 87 | 78.8 | 70.3 | 62.3 | 55.6
8 | COc1ccc(Nc2nc(N)c(-c3cc(=O)c4ccc(O)cc4o3)s2)cc1 [Compound S1-M6, 2-(2-(4-methoxyphenylamino)-4-aminothiazol-5-yl)-7-hydroxy-4H-chromen-4-one] | 1.92 | 53.1 | 45.1 | 36.7 | 27.9 | 19.4 | 220 to 222 | 48.7 | 35.2 | 25.8 | 19.9 | 12.9
9 | COc1ccc2oc(-c3sc(Nc4c(C)cccc4C)nc3N)cc(=O)c2c1 [Compound S1-M12, 2-(2-(2,6-dimethylphenylamino)-4-aminothiazol-5-yl)-6-methoxy-4H-chromen-4-one] | 2.7 | 92.1 | 95.4 | 86.9 | 78.9 | 66.9 | 228 to 230 | 85.1 | 73.4 | 65.9 | 56.9 | 45.8
10 | COc1cc2ncnc(Nc3ccc(F)c(Cl)c3)c2cc1OCCCN1CCOCC1 [Gefitinib, gefitinib, reference compound] | – | 55.2 | 43.7 | 35.3 | 29.3 | 20.3 | – | 55.2 | 43.7 | 35.3 | 29.3 | 20.3
11 | COc1ccc2oc(-c3sc(Nc4ccc(C)cc4)nc3N)cc(=O)c2c1 [Compound S1-M10, 2-(2-(p-tolylamino)-4-aminothiazol-5-yl)-6-methoxy-4H-chromen-4-one] | 3.99 | 96.9 | 93 | 86.4 | 76.4 | 66.4 | 280 to 282 | 87.9 | 78 | 69.4 | 59.4 | 50.4
12 | COc1ccccc1Nc1nc(N)c(-c2cc(=O)c3ccc(O)cc3o2)s1 [Compound S1-M7, 2-(2-(2-methoxyphenylamino)-4-aminothiazol-5-yl)-7-hydroxy-4H-chromen-4-one] | 2.11 | 96.1 | 94.9 | 84.8 | 74.8 | 66.8 | 210 to 212 | 85.1 | 75.9 | 65.8 | 57.8 | 45.8
13 | COc1ccc2c(=O)cc(-c3sc(Nc4ccccc4OC)nc3N)oc2c1 [Compound S1-M15, 2-(2-(2-methoxyphenylamino)-4-aminothiazol-5-yl)-7-methoxy-4H-chromen-4-one] | 2.5 | 96.1 | 92.7 | 85.3 | 75.3 | 68.3 | 210 to 212 | 89.1 | 77.9 | 68.7 | 60.7 | 50.3
14 | Cc1ccc(Nc2nc(N)c(-c3cc(=O)c4ccc(O)cc4o3)s2)cc1 [Compound S1-M2, 2-(2-(p-tolylamino)-4-aminothiazol-5-yl)-7-hydroxy-4H-chromen-4-one] | 1.9 | 56.1 | 41.1 | 31.1 | 24.1 | 20.9 | 244 to 246 | 41.1 | 34.4 | 28.1 | 19.6 | 14.9
15 | COc1ccc(Nc2nc(N)c(-c3cc(=O)c4ccc(OC)cc4o3)s2)cc1 [Compound S1-M14, 2-(2-(4-methoxyphenylamino)-4-aminothiazol-5-yl)-7-methoxy-4H-chromen-4-one] | 2.6 | 98 | 89.1 | 81.1 | 71.1 | 63.1 | 220 to 222 | 91 | 80.1 | 70.6 | 61.3 | 51.1
16 | Nc1nc(Nc2ccccc2)sc1-c1cc(=O)c2ccc(O)cc2o1 [Compound S1-M8, 2-(4-amino-2-(phenylamino)thiazol-5-yl)-7-hydroxy-4H-chromen-4-one] | 3.32 | 93.3 | 87.1 | 75 | 64 | 54 | 218 to 220 | 88.3 | 76.1 | 68 | 59 | 51.4

Source: US10221165B2, “Flavone based EGFR inhibitors and process for preparation thereof” (Council of Scientific and Industrial Research, priority 2015, dated 2019)
